This is an account of results in patent publication US5519155A, “Platinum complexes” (Johnson Matthey Public Limited Company, priority 1994, dated 1996).

One data set relates to SKOV-3. In words: In vitro cytotoxicity (SRB assay), human ovarian carcinoma line SKOV-3. In kind it is cell-based. Conditions: SKOV-3 cells, exposure 48 to 96 hours. How it is done:
(§1) Monolayer cells were trypsinized and seeded in 96-well microtiter plates at a density of 1×10^4 cells/well in 200 μl of growth medium. Cells were incubated overnight and test compounds were added to triplicate wells at various concentrations for a total of 48 to 96 hours. For toxicity analysis after drug exposure, the cells were fixed with trichloroacetic acid and stained for cellular protein content by incubation for 30 minutes with 0.4% (wt/vol) sulphorhodamine B (SRB) dissolved in 1% acetic acid. The unbound dye was removed by 1% acetic acid washes, and the bound dye was extracted with 10 mM Tris buffer. The amount of dye in solution was quantified by absorbance at 564 nm.

Another data set relates to CH1. In words: In vitro cytotoxicity (SRB assay), human ovarian carcinoma line CH1. Conditions: CH1 cells, exposure 48 to 96 hours. Type of data set: cell-based. How it is done:
as §1
In general terms: Sulforhodamine B stains cellular protein and so reports cell mass.

For another data set, the system named is 41M. In words: In vitro cytotoxicity (SRB assay), human ovarian carcinoma line 41M. Type of data set: cell-based. As to conditions: 41M cells, exposure 48 to 96 hours. How it is done:
as §1

In the next data set the test system is A2780^R. In words: In vitro cytotoxicity (SRB assay), human ovarian carcinoma line A2780^R. Type of data set: cell-based. As to conditions: A2780^R cells, exposure 48 to 96 hours. Here is the method:
as §1

For another data set, the system named is HX-62. In words: In vitro cytotoxicity (SRB assay), human ovarian carcinoma line HX-62. In kind it is cell-based. As to conditions: HX-62 cells, exposure 48 to 96 hours. How it is done: as §1
In another data set the test system is A2780. In words: In vitro cytotoxicity (SRB assay), human ovarian carcinoma line A2780. Type of data set: cell-based. Conditions: A2780 cells, exposure 48 to 96 hours. Here is the method: as §1
Another data set relates to CH^R. The data set can be described thus: In vitro cytotoxicity (SRB assay), human ovarian carcinoma line CH^R. Type of data set: cell-based. Conditions: CH^R cells, exposure 48 to 96 hours. How it is done: as §1
The test system of a further data set is 41M^R. The data set can be described thus: In vitro cytotoxicity (SRB assay), human ovarian carcinoma line 41M^R. As to conditions: 41M^R cells, exposure 48 to 96 hours. In kind it is cell-based. Here is the method: as §1
A further data set concerns Adj/PC6 tumours. In words: In vivo test in mice having Adj/PC6 tumours (LD50, ED90, TI). As to conditions: for ED90 / LD50 / TI (ratio of LD50 to ED90): mice, Adj/PC6 tumours. How it is done:
The compounds of the invention were then tested in vivo in mice having Adj/PC6 tumours. The Adj/PC6 testing was carried out as described by P M Goddard et al presented in Sixth NCI-EORTC Symposium on New Drugs in Cancer Therapy 1989, which is a development of the basic method described by T A Connors et al, Chem Biol Interact 5,415 (1972). The animals were sacrificed when moribund. The compounds were administered parenterally (ip) or orally (po), or in the case of the Example 2 compound, iv at doses of 2.5, 5, 10 and 20 mg/kg (4 animals per dose group).
In the testing, LD50 and ED90 values in mg/kg body weight were determined in the conventional manner. The therapeutic index (TI) was calculated as the ratio of LD50 to ED90, and the results are shown below.

Setting [1] is: i.v., doses 2.5, 5, 10 and 20 mg/kg.

pIC50: −log10 of the molar value.

As to `CC(C)N.CC(C)N.CCCCCC(=O)[O][Pt]([OH])([Cl])[O]C(=O)CCCCC` [Example 3, c,t,c-[PtCl(OH)(O2 CC5 H11)2 (i-C3 H7 NH2)2]], the pIC50 (usually −log10 of the IC50, conventionally taken in molar units) in the data set with SKOV-3 was 8.34; in the data set on CH1, over 8.60; in the data set with 41M, over 8.60; with A2780^R, 8.54; in the data set with HX-62, 7.30; in the data set on A2780, over 8.60. Besides, the pIC50 in the data set on CH^R and in the data set with 41M^R was over 8.60 in each case.
Take `CC(=O)[O][Pt]([OH])([Cl])[O]C(C)=O.CC(C)N.CC(C)N` [Example 4, c,t,c-[PtCl(OH)(OAc)2 (i-C3 H7 NH2)2]]: the negative-log IC50 (pIC50) was 5.80 in the data set on SKOV-3; 7.07 in the data set on CH1; 6.05 with 41M; 5.72 in the data set on A2780^R; 5.68 in the data set on HX-62; 6.19 with A2780. Further, the pIC50 was 6.68 in the data set with CH^R and 6.23 with 41M^R.
On to `CC(=O)[O][Pt]([OH])([Cl])[O]C(C)=O.N.NC1CCCCC1` [Example 6, c,t,c-[PtCl(OH)(OAc)2 NH3 (c-C6 H11 NH2)]], for which the pIC50 was 5.94 with SKOV-3; 7.66 in the data set on CH1; 6.62 with 41M; 6.03 with A2780^R; 5.51 in the data set with HX-62; 6.51 in the data set on A2780. The pIC50 was 7.09 with CH^R and 6.36 in the data set on 41M^R.
Regarding `CC(=O)[O][Pt]([OH])([OH])[O]C(C)=O.N.NC1CCCCC1` [Example 2, c,t,c-[Pt(OH)2 (OAc)2 NH3 (c-C6 H11 NH2)]], the pIC50 in the data set with SKOV-3 was 4.68; in the data set with CH1, 6.13; with 41M, 5.19; in the data set on A2780^R, 5.43; in the data set on HX-62, 4.43; with A2780, 5.38. Also, the results for the pIC50 in the data set with CH^R and in the data set on 41M^R were 5.87 and 5.37, respectively. Besides, the ED90 was 4.2 mg/kg in the data set on Adj/PC6 tumours (i.p.), under 2.5 mg/kg with Adj/PC6 tumours (setting [1]) and 42 mg/kg in the data set with Adj/PC6 tumours (p.o.). The values for the LD50 in the data set on Adj/PC6 tumours (i.p.), in the data set with Adj/PC6 tumours (setting [1]) and with Adj/PC6 tumours (p.o.) were 17.5 mg/kg, 14 mg/kg and 670 mg/kg, respectively. The figures for the “TI (ratio of LD50 to ED90)” value in the data set on Adj/PC6 tumours (i.p.), in the data set on Adj/PC6 tumours (setting [1]) and in the data set with Adj/PC6 tumours (p.o.) were 4.2, over 5.6 and 16, respectively. Besides, in the data set with Adj/PC6 tumours (oral vs parenteral, in words), the “therapeutic index, oral route compared to parenteral administration” value was “greater therapeutic index”.
As to `CC(C)N.CC(C)N.C[O][Pt]([OH])([O]C(C)=O)[O]C(C)=O` [Example 7, c,t,c-[Pt(OH)(OMe)(OAc)2 (i--C3 H7 NH2)2]], the pIC50 was 5.21 with SKOV-3; 6.59 in the data set with CH1; 5.51 in the data set with 41M; 4.90 in the data set with HX-62; 5.60 in the data set with 41M^R.
Turning to `CCCC(=O)[O][Pt]([Cl])([O]C)[O]C(=O)CCC.N.NC1CCCCC1` [Example 1, c,t,c-[PtCl(OMe)(O2 CC3 H7)2 NH3 (c-C6 H11 NH2)]], the pIC50 in the data set on SKOV-3 was 7.52; in the data set on CH1, 8.70; in the data set on 41M it was 8.00; in the data set on HX-62, 6.66; in the data set on 41M^R, 7.89. Further, the ED90 in the data set with Adj/PC6 tumours (i.p.) was determined as 2.6 mg/kg. In addition, the LD50 (commonly the dose expected to kill half of the subjects tested) in the data set on Adj/PC6 tumours (i.p.) was 17.5 mg/kg. In the data set with Adj/PC6 tumours (i.p.), the “TI (ratio of LD50 to ED90)” value was 6.7.
